Measured values published in the NIST ThermoML archive (doi:10.1016/j.jct.2019.04.017).
± gives the expanded uncertainty stated by the source.

Test: xn = mol fraction of the nth substance listed
Conditions: 96 kPa, Liquid; for electrical conductivity: Frequency=0.001 MHz, Alternating current cell with electrodes; for viscosity: Cone and plate viscometry

C1CCC2=NCCCN2CC1 [1,8-diaza-7-bicyclo[5.4.0]undecene] + OCC(O)CO
Conditions | electrical conductivity, 308.1 K [S/m] | electrical conductivity, 313.1 K [S/m] | electrical conductivity, 318.1 K [S/m] | electrical conductivity, 323.1 K [S/m] | electrical conductivity, 328.1 K [S/m] | viscosity, 318.1 K [mPa·s] | viscosity, 328.1 K [mPa·s]
x1 = 0.0501 | – | – | – | – | – | 294.1 ± 25 | 152.2 ± 11
x1 = 0.0502 | – | 0.0666 ± 0.0026 | 0.0795 ± 0.0032 | 0.0955 ± 0.0038 | 0.11 ± 0.0043 | – | –
x1 = 0.0909 | – | – | – | – | – | 345.9 ± 30 | 175 ± 13
x1 = 0.0914 | – | 0.0785 ± 0.0031 | 0.0971 ± 0.0039 | 0.118 ± 0.0047 | 0.132 ± 0.0052 | – | –
x1 = 0.1 | – | – | 0.0947 ± 0.0042 | – | 0.132 ± 0.0058 | 343 ± 30 | 177.4 ± 13
x1 = 0.1115 | 0.0567 ± 0.0022 | 0.0761 ± 0.003 | 0.0924 ± 0.0037 | 0.107 ± 0.0043 | 0.129 ± 0.0051 | – | –
x1 = 0.1266 | 0.0543 ± 0.0022 | 0.0699 ± 0.0028 | 0.0877 ± 0.0035 | 0.101 ± 0.004 | 0.126 ± 0.005 | – | –
x1 = 0.1667 | – | – | – | – | – | 359.5 ± 32 | 182.5 ± 14
x1 = 0.1672 | 0.0468 ± 0.0019 | 0.0613 ± 0.0024 | 0.0735 ± 0.0029 | 0.0882 ± 0.0035 | 0.103 ± 0.0041 | – | –
x1 = 0.2 | 0.0398 ± 0.0016 | 0.0497 ± 0.002 | 0.0601 ± 0.0024 | 0.071 ± 0.0028 | 0.0859 ± 0.0034 | 370.7 ± 33 | 184.3 ± 14
x1 = 0.2153 | – | – | – | – | – | 376.5 ± 34 | 186.8 ± 14
x1 = 0.2306 | – | – | – | – | – | 355.8 ± 31 | 177.8 ± 13
x1 = 0.2504 | 0.0263 ± 0.001 | 0.0335 ± 0.0013 | 0.041 ± 0.0016 | 0.0491 ± 0.0019 | 0.0585 ± 0.0023 | – | –
x1 = 0.287 | 0.0194 ± 0.00077 | 0.0245 ± 0.00097 | 0.0303 ± 0.0012 | 0.0358 ± 0.0014 | 0.0432 ± 0.0017 | – | –
x1 = 0.3059 | – | – | – | – | – | 341.7 ± 30 | 159.5 ± 12
x1 = 0.3333 | – | – | – | – | – | 316.5 ± 27 | 155 ± 11
x1 = 0.3338 | 0.0137 ± 0.00054 | 0.0158 ± 0.00063 | 0.0192 ± 0.00076 | 0.0233 ± 0.00092 | 0.0271 ± 0.0011 | – | –
x1 = 0.4003 | 0.00571 ± 0.00023 | 0.00702 ± 0.00028 | 0.00895 ± 0.00035 | 0.0107 ± 0.00042 | 0.0131 ± 0.00052 | – | –
x1 = 0.4011 | – | – | – | – | – | 279.6 ± 23 | 138.5 ± 10
x1 = 0.5 | 0.00128 ± 5.1e-05 | 0.00169 ± 6.7e-05 | 0.00221 ± 8.8e-05 | 0.00279 ± 0.00011 | 0.00347 ± 0.00014 | 223.8 ± 18 | 105.4 ± 7.4
x1 = 0.5632 | – | – | – | – | – | 169.8 ± 13 | 83.62 ± 5.7
x1 = 0.5656 | 0.000502 ± 2e-05 | 0.000644 ± 2.5e-05 | 0.000939 ± 3.7e-05 | 0.00113 ± 4.5e-05 | 0.0015 ± 5.9e-05 | – | –
x1 = 0.625 | – | – | – | – | – | 109 ± 7.7 | 57.48 ± 3.8
x1 = 0.6255 | 0.000251 ± 9.9e-06 | 0.00034 ± 1.3e-05 | 0.000466 ± 1.8e-05 | 0.000604 ± 2.4e-05 | 0.0008 ± 3.2e-05 | – | –
x1 = 0.75 | 0.000346 ± 1.5e-05 | – | 0.000559 ± 2.5e-05 | – | 0.000826 ± 3.7e-05 | 43.75 ± 2.9 | 26.15 ± 1.7
x1 = 0.753 | 0.000346 ± 1.4e-05 | 0.000447 ± 1.8e-05 | 0.000559 ± 2.2e-05 | 0.000667 ± 2.6e-05 | 0.000826 ± 3.3e-05 | – | –
x1 = 0.8333 | 0.000614 ± 2.7e-05 | – | 0.00087 ± 3.9e-05 | – | 0.00115 ± 5.1e-05 | 20.71 ± 1.4 | 13.46 ± 0.87
x1 = 0.8334 | 0.000614 ± 2.4e-05 | 0.00076 ± 3e-05 | 0.00087 ± 3.4e-05 | 0.00102 ± 4e-05 | 0.00115 ± 4.5e-05 | – | –
x1 = 0.9094 | 0.000788 ± 3.1e-05 | 0.000915 ± 3.6e-05 | 0.00101 ± 4e-05 | 0.00111 ± 4.4e-05 | 0.0012 ± 4.8e-05 | – | –
x1 = 0.95 | 0.000791 ± 3.1e-05 | 0.000857 ± 3.4e-05 | 0.000949 ± 3.8e-05 | 0.00104 ± 4.1e-05 | 0.00112 ± 4.4e-05 | – | –
x1 = 0.975 | 0.000668 ± 2.6e-05 | 0.000719 ± 2.9e-05 | 0.000789 ± 3.1e-05 | 0.000841 ± 3.3e-05 | 0.000928 ± 3.7e-05 | – | –
x1 = 1 | 0.00032 ± 1.3e-05 | 0.000356 ± 1.4e-05 | 0.000382 ± 1.5e-05 | 0.000423 ± 1.7e-05 | 0.000444 ± 1.8e-05 | 6.08 ± 0.39 | 4.91 ± 0.32
